From article PMC9116245, “New 1,2,3-triazole linked ciprofloxacin-chalcones induce DNA damage by inhibiting human topoisomerase I& II and tubulin polymerization” (Journal of Enzyme Inhibition and Medicinal Chemistry, 2022)
Where two headings read alike, the source gives them in different places.

Experiments:
[1] = system: HCT116 cells; assay: Analysis of cell cycle distribution; assay type: cell-based, human; conditions: HCT116, different concentrations, 24 h
Excerpt: Generally, the mammalian cells counteract the DNA damage by different mechanisms including the cell cycle arrest to allow the cell to repair the damage. There are 2 checkpoints that control DNA damage. The first checkpoint is at the G1/S transition while the other checkpoint is at the G2/M transition. To cover the mechanisms of the synthesised compounds in inhibiting cell proliferation, we analysed the distribution of cell cycle of HCT116 cells following the treatment with different doses of 4a, 4b, 4e, 4i, and 4j. […] See Supplementary Appendix A.

[2] = molecular target: T1, recombinant human DNA topoisomerase I (Homo sapiens, UniProt P11387); assay: Human DNA Topoisomerase I Assay Kit (ProFoldin); assay type: biochemical; conditions: compounds at their IC50 values, reference camptothecin
T1 construct: purchased Sigma-Aldrich
T1 sequence (P11387 1-765): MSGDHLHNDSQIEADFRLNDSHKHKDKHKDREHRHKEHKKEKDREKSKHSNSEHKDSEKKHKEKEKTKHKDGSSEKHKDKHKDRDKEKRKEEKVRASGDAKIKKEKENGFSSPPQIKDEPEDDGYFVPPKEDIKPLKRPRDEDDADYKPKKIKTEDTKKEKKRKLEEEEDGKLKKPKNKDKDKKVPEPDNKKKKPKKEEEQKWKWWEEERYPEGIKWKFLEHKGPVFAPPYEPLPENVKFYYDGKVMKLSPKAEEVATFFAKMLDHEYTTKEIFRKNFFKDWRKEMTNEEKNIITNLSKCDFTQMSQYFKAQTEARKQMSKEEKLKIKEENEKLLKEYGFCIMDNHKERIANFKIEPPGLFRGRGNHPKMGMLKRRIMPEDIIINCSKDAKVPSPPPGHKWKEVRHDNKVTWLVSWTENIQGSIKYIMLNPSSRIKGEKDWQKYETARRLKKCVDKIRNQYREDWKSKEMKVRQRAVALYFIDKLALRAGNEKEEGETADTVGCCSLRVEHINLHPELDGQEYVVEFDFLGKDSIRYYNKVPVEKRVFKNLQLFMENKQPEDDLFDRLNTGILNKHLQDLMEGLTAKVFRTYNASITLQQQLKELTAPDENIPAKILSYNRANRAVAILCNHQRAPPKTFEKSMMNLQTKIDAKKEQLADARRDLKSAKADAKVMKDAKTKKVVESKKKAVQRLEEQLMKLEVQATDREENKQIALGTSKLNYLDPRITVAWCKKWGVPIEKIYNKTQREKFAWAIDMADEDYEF

[3] = system: M14; assay type: cell-based; conditions: Homo sapiens
[4] = system: COLO 205; assay type: cell-based; conditions: Homo sapiens
[5] = system: SK-MEL-5; assay type: cell-based; conditions: Homo sapiens
[6] = system: HCT-15; assay type: cell-based; conditions: Homo sapiens
[7] = system: MCF7; assay type: cell-based, human
[8] = system: MDA-MB-231/ATCC; assay type: cell-based
[9] = system: OVCAR-8; assay type: cell-based; conditions: Homo sapiens
[10] = system: CCRF-CEM; assay type: cell-based; conditions: Homo sapiens
[11] = system: SN12C; assay type: cell-based; conditions: Homo sapiens
[12] = system: Human Embryonic Kidney (HEK) 293 cells; assay: Cytotoxicity assay with non-cancerous cells (MTS); assay type: cell-based; conditions: HEK293 versus cancer cells
Method: To evaluate the selectivity and safety profile of the synthesised CP hybrids, a cytotoxicity experiment of compounds 4a, 4b, 4e, 4i, and 4j was performed using normal Human Embryonic Kidney (HEK) 293 cells.
To evaluate the selectivity and safety profile of the synthesised ciprofloxacin-chalcone hybrids, a cytotoxicity experiment was performed using a non-cancerous cell line. Briefly, Human Embryonic Kidney (HEK) 293 cells (ATCC, Manassas, VA, USA) were cultured in a Dulbecco’s Modified Eagle Medium (DEMEM) supplemented with 1 mM sodium pyruvate, 10 mM HEPES buffer solution, 2 mM GlutaMAX (Gibco, Grand Island, NY, USA), 50 µg/mL gentamycin sulphate (Dubuque, IA, USA), and 10% foetal bovine serum (ThermoFisher Scientific, USA). Cells were seeded in 96-well plates and incubated overnight in a humidified atmosphere with 5% CO2 at 37 °C. After 24 h, cells were treated with different concentrations (0.01–100 µM) of ciprofloxacin-chalcone hybrids. Also, DMSO and doxorubicin were used as negative and positive controls, respectively. After 72 h, old medium containing treatments were removed, and fresh medium and MTS reagents (CellTiter 96® AQueous One Solution Cell Proliferation Assay, Promega, Madison, WI, USA) were added. […] After 2 h, the absorbance was measured at 490 nm using a Spectra Max plus 384 Microplate reader (Molecular Devices, Sunnyvale, CA, USA) [74]. […]

[13] = system: MALME-3M; assay type: cell-based; conditions: Homo sapiens
[14] = system: NCI/ADR-RES; assay type: cell-based; conditions: Homo sapiens
[15] = system: SK-MEL-28; assay type: cell-based; conditions: Homo sapiens
[16] = system: U251; assay type: cell-based; conditions: Homo sapiens
[17] = system: MDA-MB-468; assay type: cell-based; conditions: Homo sapiens
[18] = system: LOX IMVI; assay type: cell-based; conditions: Homo sapiens
[19] = system: SNB-19; assay type: cell-based; conditions: Homo sapiens
[20] = system: NCI-H460; assay type: cell-based; conditions: Homo sapiens
[21] = system: SK-OV-3; assay type: cell-based; conditions: Homo sapiens
[22] = system: SK-MEL-2; assay type: cell-based; conditions: Homo sapiens
[23] = system: OVCAR-4; assay type: cell-based; conditions: Homo sapiens
[24] = system: Melanoma (cell line name not given); assay type: cell-based; conditions: Homo sapiens, under Melanoma
[25] = system: OVCAR-5; assay type: cell-based; conditions: Homo sapiens
[26] = system: SF-268; assay type: cell-based; conditions: Homo sapiens
[27] = system: UACC-257; assay type: cell-based; conditions: Homo sapiens
[28] = system: OVCAR-3; assay type: cell-based; conditions: Homo sapiens
[29] = system: HL-60(TB); assay type: cell-based; conditions: Homo sapiens
[30] = read-out: LC50 (the source's name)

Cc1ccc(/C=C/C(=O)c2ccc(-n3cc(CN4CCN(c5cc6c(cc5F)c(=O)c(C(=O)O)cn6C5CC5)CC4)nn3)cc2)cc1 [Compound 4f, (E)-1-cyclopropyl-6-fluoro-4-oxo-7-(4-((1-(4-(3-(p-tolyl)acryloyl)phenyl)-1H-1,2,3-triazol-4-yl)methyl)piperazin-1-yl)-1,4-dihydroquinoline-3-carboxylic acid]
melting point: 259 to 261 °C

COc1ccc(/C=C/C(=O)c2ccc(-n3cc(CN4CCN(c5cc6c(cc5F)c(=O)c(C(=O)O)cn6C5CC5)CC4)nn3)cc2)cc1OC [Compound 4i, (E)-1-cyclopropyl-7-(4-((1-(4-(3–(3,4-dimethoxyphenyl)acryloyl)phenyl)-1H-1,2,3-triazol-4-yl)methyl)piperazin-1-yl)-6-fluoro-4-oxo-1,4-dihydroquinoline-3-carboxylic acid]
cell cycle distribution [1]: induced G2/M phase cell cycle arrest in a concentration-dependent manner

O=C(/C=C/c1ccc(F)cc1)c1ccc(-n2cc(CN3CCN(c4cc5c(cc4F)c(=O)c(C(=O)O)cn5C4CC4)CC3)nn2)cc1 [Compound 4e, (E)-1-cyclopropyl-6-fluoro-7–(4-((1–(4-(3-(4-fluorophenyl)acryloyl)phenyl)-1H-1,2,3-triazol-4-yl)methyl)piperazin-1-yl)-4-oxo-1,4-dihydroquinoline-3-carboxylic acid]
Top-I inhibitory activity, enzyme assay kit [2]: comparable to camptothecin | cell cycle distribution [1]: induced G2/M phase cell cycle arrest in a concentration-dependent manner

O=C(/C=C/c1ccc(Cl)cc1)c1ccc(-n2cc(CN3CCN(c4cc5c(cc4F)c(=O)c(C(=O)O)cn5C4CC4)CC3)nn2)cc1 [Compound 4c, (E)-7-(4-((1-(4-(3-(4-chlorophenyl)acryloyl)phenyl)-1H-1,2,3-triazol-4-yl)methyl)piperazin-1-yl)-1-cyclopropyl-6-fluoro-4-oxo-1,4-dihydroquinoline-3-carboxylic acid]
melting point: 257 to 259 °C

COc1ccc(/C=C/C(=O)c2ccc(-n3cc(CN4CCN(c5cc6c(cc5F)c(=O)c(C(=O)O)cn6C5CC5)CC4)nn3)cc2)cc1 [Compound 4g, (E)-1-Cyclopropyl-6-fluoro-7-(4-((1-(4-(3-(4-methoxyphenyl)acryloyl)phenyl)-1H-1,2,3-triazol-4-yl)methyl)piperazin-1-yl)-4-oxo-1,4-dihydroquinoline-3-carboxylic acid]
melting point: 254 to 257 °C

O=C(/C=C/c1cccc(Cl)c1)c1ccc(-n2cc(CN3CCN(c4cc5c(cc4F)c(=O)c(C(=O)O)cn5C4CC4)CC3)nn2)cc1 [Compound 4b, (E)-7-(4-((1–(4-(3-(3-chlorophenyl)acryloyl)phenyl)-1H-1,2,3-triazol-4-yl)methyl)piperazin-1-yl)-1-cyclopropyl-6-fluoro-4-oxo-1,4-dihydroquinoline-3-carboxylic acid]
cell cycle distribution [1]: induced G2/M phase cell cycle arrest in a concentration-dependent manner

O=C(/C=C/c1ccccc1)c1ccc(-n2cc(CN3CCN(c4cc5c(cc4F)c(=O)c(C(=O)O)cn5C4CC4)CC3)nn2)cc1 [Compound 4a, (E) 7-(4-((1–(4-Cinnamoylphenyl)-1H-1,2,3-triazol-4-yl)methyl)piperazin-1-yl)-1-cyclopropyl-6-fluoro-4-oxo-1,4-dihydroquinoline-3-carboxylic acid]
Top-I inhibitory activity, enzyme assay kit [2]: highest Top-I inhibitory activity | cell cycle distribution [1]: induced G2/M phase cell cycle arrest in a concentration-dependent manner

COc1cc(/C=C/C(=O)c2ccc(-n3cc(CN4CCN(c5cc6c(cc5F)c(=O)c(C(=O)O)cn6C5CC5)CC4)nn3)cc2)cc(OC)c1OC [Compound 4j, (E)-1-cyclopropyl-6-fluoro-4-oxo-7–(4-((1–(4-(3-(3,4,5-trimethoxyphenyl)acryloyl)phenyl)-1H-1,2,3-triazol-4-yl)methyl)piperazin-1-yl)-1,4-dihydroquinoline-3-carboxylic acid]
GI50 [3]: 2.49 µM | CC50 [3, 30]: > 100 µM | GI50 [4]: 5.08 µM | CC50 [4, 30]: > 100 µM | GI50 [5]: 2.64 µM | CC50 [5, 30]: > 100 µM | GI50 [6]: 2.25 µM | CC50 [6, 30]: > 100 µM | GI50 ([7]; Homo sapiens, MCF7, MCF7): 0.396 µM | CC50 ([7]; Homo sapiens, MCF7, read-out: LC50 (the source's name)): > 100 µM | GI50 ([7]; MCF7): 0.39 µM | GI50 ([8]; Homo sapiens, MDA-MB-231, MDA-MB231/ATCC): 3.2 µM | CC50 ([8]; Homo sapiens, MDA-MB-231/ATCC, read-out: LC50 (the source's name)): > 100 µM | TGI ([8]; MDA-MB231/ATCC): >100 µM | TGI ([8]; MDA-MB-231/ATCC): > 1.00E-4 Molar | GI50 [9]: 4.03 µM | CC50 [9, 30]: > 100 µM | GI50 [10]: 2.63 µM | CC50 [10, 30]: > 100 µM | GI50 [11]: 2.66 µM | CC50 [11, 30]: 46.2 µM | selectivity index compared with Doxorubicin [12]: six-fold better | GI50 [13]: 2.59 µM | CC50 [13, 30]: > 100 µM | GI50 [14]: > 100 µM | CC50 [14, 30]: > 100 µM | Top-I inhibitory activity, enzyme assay kit [2]: less potent Top-1 inhibitor | cell cycle distribution [1]: induced G2/M phase cell cycle arrest in a concentration-dependent manner | GI50 [15]: 2.77 µM | LC50 [15]: 78.9 µM | GI50 ([16]; U-251): 1.48 µM | CC50 ([16]; U-251, read-out: LC50 (the source's name)): > 100 µM | GI50 [17]: 1.96 µM | CC50 [17, 30]: > 100 µM | GI50 [18]: 1.57 µM | CC50 [18, 30]: > 100 µM | GI50 [19]: 4.52 µM | CC50 [19, 30]: > 100 µM | GI50 [20]: 2.4 µM | CC50 [20, 30]: > 100 µM | GI50 [21]: 7.09 µM | CC50 [21, 30]: > 100 µM | GI50 [22]: 21.1 µM | CC50 [22, 30]: > 100 µM | GI50 [23]: 3.94 µM | CC50 [23, 30]: 39.6 µM | GI50 [24]: 1.73 µM | GI50 [25]: 3.7 µM | CC50 [25, 30]: > 100 µM | GI50 [26]: 3.09 µM | CC50 [26, 30]: > 100 µM | GI50 [27]: 6.34 µM | LC50 [27]: > 100 µM | GI50 [28]: 1.84 µM | CC50 [28, 30]: > 100 µM | GI50 [29]: 3.18 µM | CC50 [29, 30]: > 100 µM

CN(C)c1ccc(/C=C/C(=O)c2ccc(-n3cc(CN4CCN(c5cc6c(cc5F)c(=O)c(C(=O)O)cn6C5CC5)CC4)nn3)cc2)cc1 [Compound 4h, (E)-1-cyclopropyl-7–(4-((1–(4-(3-(4-(dimethylamino)phenyl)acryloyl)phenyl)-1H-1,2,3-triazol-4-yl)methyl)piperazin-1-yl)-6-fluoro-4-oxo-1,4-dihydroquinoline-3-carboxylic acid]
melting point: 177 to 179 °C

O=C(/C=C/c1ccc(Br)cc1)c1ccc(-n2cc(CN3CCN(c4cc5c(cc4F)c(=O)c(C(=O)O)cn5C4CC4)CC3)nn2)cc1 [Compound 4d, (E)-7-(4-((1-(4-(3-(4-bromophenyl)acryloyl)phenyl)-1H-1,2,3-triazol-4-yl)methyl)piperazin-1-yl)-1-cyclopropyl-6-fluoro-4-oxo-1,4-dihydroquinoline-3-carboxylic acid]
melting point: 247 to 249 °C
